Entries after “also recorded” stand apart in the source; their conditions may differ.
Experiment: In vitro enhancer release, paddle over disk method (apparatus 5, USP 23)
Format: physicochemical
Conditions: in words, in vitro and in vivo results
Procedure: The release of lauric acid and oleic acid was analyzed using paddle over disk method (apparatus 5, USP 23, Drug Release 724).
FIG. 1 schematically shown the apparatus mentioned before. In these experiments we have determined the release profiles of lauric acid and oleic acid from transdermal patches, measuring the remaining drug (by means of HPLC techniques) in samples taken at different time points.
The examples used were: Example 1; Example 2 and Example 3.
The dissolution conditions used were: paddle speed: 50 rpm; temperature: 32° C.; dissolution medium: aqueous solution of sodium dodecyl sulphate 0.3%; volume: 500 ml; sample program: 0.5; 1.0; 2.0; 4.0; 8.0 and 24 h.

Row | Compound | Release from the adhesive matrix | Release from the adhesive matrix (listed as lauric acid)
1 | CCCCCCCCCCCC(=O)O [Lauric acid] | rapid release | a great proportion of the amount of lauric acid is delivered at early times
2 | CCCCCCCC/C=C\CCCCCCCC(=O)O [oleic acid] | slow release; also recorded: delivered in small amount and is prone to remain in the adhesive monolithic matrix | –

From US6231885A, “Composition for controlled and sustained transdermal administration” (Permatec Technologie AG, priority 1997, dated 2001)
